Laboratory results reported in ChEMBL document CHEMBL1201862, “PubChem BioAssay data set” (2004).
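In this assay, cells in 96-well plates receive the compound at five concentrations for 48 hours. Endpoints are linearly interpolated between the surrounding concentrations. Abbreviation: GI50, concentration required for 50% inhibition of growth.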 The source made the active and inactive calls. Rule as the data show it: active = GI50 up to about 1.1 µM and inactive = higher.

Legend:
Assay in all cases: DTP human tumour cell line panel, 48 h
SW-620 = test system: SW-620
HL-60 = test system: HL-60
SN12C = test system: SN12C
786-0 = test system: 786-0
SF-268 = test system: SF-268
MDA-MB-231 = test system: MDA-MB-231
MDA-N = test system: MDA-N
SK-MEL-2 = test system: SK-MEL-2
SK-MEL-28 = test system: SK-MEL-28
CAKI-1 = test system: CAKI-1
NCI-H226 = test system: NCI-H226
A498 = test system: A498
EKVX = test system: EKVX
MDA-MB-435 = test system: MDA-MB-435
SF-295 = test system: SF-295
HCC 2998 = test system: HCC 2998
SNB-19 = test system: SNB-19
TK-10 = test system: TK-10
OVCAR-3 = test system: OVCAR-3
K562 = test system: K562

Measured: GI50

COC(=O)C1Cc2cc3c(cc2C1)CCC3
inactive: SW-620 > 100 µM | HL-60 > 100 µM | SN12C > 100 µM | 786-0 > 100 µM | SF-268 > 100 µM | MDA-MB-231 > 100 µM | MDA-N > 100 µM | SK-MEL-2 > 100 µM | SK-MEL-28 > 100 µM | CAKI-1 > 100 µM | NCI-H226 > 100 µM | A498 > 100 µM | EKVX > 100 µM | MDA-MB-435 > 100 µM | SF-295 > 100 µM | HCC 2998 > 100 µM | SNB-19 > 100 µM | TK-10 3.65 µM | OVCAR-3 > 100 µM | K562 > 100 µM

CN(C)CCCNC(=O)c1cc(NC(=O)c2cc(NS(=O)(=O)c3ccc4c(c3)C(=O)c3ccccc3C4=O)cn2C)cn1C
inactive: SW-620 94.8 µM | HL-60 97.9 µM | SN12C > 100 µM | 786-0 > 100 µM | SF-268 > 100 µM | MDA-MB-231 > 100 µM | MDA-N 88.5 µM | SK-MEL-2 > 100 µM | SK-MEL-28 86.5 µM | CAKI-1 > 100 µM | NCI-H226 > 100 µM | A498 > 100 µM | EKVX > 100 µM | MDA-MB-435 83.8 µM | SF-295 > 100 µM | HCC 2998 > 100 µM | SNB-19 41.5 µM | TK-10 > 100 µM | OVCAR-3 95.5 µM | K562 52.6 µM

C[C@]12CCC3c4ccc(O)cc4CC[C@H]3C1CC(=O)N(CCN1CCCC1)C2=O (stereo not given in full)
inactive: SW-620 > 10 µM | HL-60 > 10 µM | SN12C > 10 µM | 786-0 > 10 µM | SF-268 > 10 µM | MDA-MB-231 > 10 µM | MDA-N > 10 µM | SK-MEL-2 > 10 µM | SK-MEL-28 > 10 µM | CAKI-1 > 10 µM | NCI-H226 > 10 µM | A498 > 10 µM | EKVX > 10 µM | MDA-MB-435 > 10 µM | SF-295 > 10 µM | HCC 2998 > 10 µM | SNB-19 > 10 µM | TK-10 > 10 µM | OVCAR-3 > 10 µM | K562 > 10 µM
